Test results from patent publication US12466818B2, “Thienyl-aniline compounds for treatment of dermal disorders” (NFlection Therapeutics, Inc., priority 2018, dated 2025).

How the values were obtained:
[1] = Assay 6: liver microsomes half-life stability assay; type: in vitro ADME; conditions: pH 7.4; human liver microsomes, 1 μM test compound, NADPH
Protocol: Metabolic stability of testing compound can be evaluated using human liver microsomes to predict intrinsic clearance. Human liver microsomes are obtained from Corning Gentest.
The assay was carried out in 96-well microtiter plates at 37° C. Reaction mixtures (25 μL) contain a final concentration of 1 μM test compound, 0.5 mg/mL liver microsomes protein, and 1 mM NADPH in buffer (100 mM potassium phosphate, pH 7.4 buffer with 3 mM MgCl2). At each of the time points (0, 15, 30, and 60 minutes), 150 μL of quench solution (100% acetonitrile with 0.1% formic acid) with internal standard was transferred to each well. Verapamil was included as a positive control to verify assay performance. Plates were sealed and centrifuged at 4° C. for 15 minutes at 4000 rpm. The supernatant was transferred to fresh plates for LC/MS/MS analysis.
All samples were analyzed on LC/MS/MS using an AB Sciex API 4000 instrument, coupled to a Shimadzu LC-20AD LC Pump system. […]
The extent of metabolism was calculated as the disappearance of the test compound, compared to the 0-min time incubation. Initial rates were calculated for the compound concentration and used to determine t1/2 values and subsequently, the intrinsic clearance, CLint=(0.693)(1/t1/2 (min))(g of liver/kg of body weight)(mL incubation/mg of microsomal protein)(45 mg of microsomal protein/g of liver weight). […]

[2] = test system: pERK in human cutaneous neurofibroma explants; assay: Human cutaneous neurofibroma explant pERK suppression (Western blot); type: cell-based
Protocol: Explant Protocol: Human cutaneous neurofibroma explant samples were collected in DMEM/F-12 (Thermo Fisher, Cat #11320033) supplemented with 1×B27 supplement (Thermo Fisher, Cat #17504044), 2.5 μg/ml of Amphotericin B (Thermo Fisher, Cat #15290018), and 50 units/ml of Penicillin-50 μg/ml of Streptomycin (Thermo Fisher, Cat #15070063) and incubated in the same medium for subsequent treatment. The specimen was cut into small cubes containing both the epidermis and dermis. The tissues were partially submerged in the medium in 384-well plate with the epidermis exposed to the air.
The tissues were fully submerged in the medium in 48-well plate and 5 μl of compounds dissolved in DMSO were added to 200 μl of the medium in each well. After 4 h incubation at 37° C. and 5% CO2, the tissues were harvested and half of the specimen was flash frozen in liquid nitrogen for Western Blot analysis. The other half of the specimen was fixed for 24 hours in 10% formalin and then transferred to 70% ethanol for […].
Skin samples were thawed on ice and weighed. 10 volume (10 μl for each mg of tissue) of lysis buffer (RIPA buffer+0.5 mM EDTA+1×Halt protease and phosphatase inhibitor cocktail) was then added to each sample. […]
Western Blot analysis: The lysate was thawed on ice and protein concentration was determined by the BCA protein assay kit using bovine serum albumin (BSA) as standards. […]

- half-life at 1 μM [1]: ≤ 50 min
SMILES: O=C1CCCc2c1sc(Nc1ccc(I)cc1F)c2C(=O)NOCCO [Compound 1.029, 2-((2-Fluoro-4-iodophenyl)amino)-N-(2-hydroxyethoxy)-7-oxo-4,5,6,7-tetrahydrobenzo[b]thiophene-3-carboxamide]
- suppression of pERK in human cutaneous neurofibroma (cNF) explants (FIG. 5) ([2]; concentration of 500 nM): suppression of pERK
- suppression of pERK in human cutaneous neurofibroma (cNF) explants (FIG. 4) ([2]; treatment for 4 hours at 5 nM, 50 nM, and 500 nM): suppression of pERK
